Consider 22 molecules from US6403626B1, “Benzimidazole derivatives” (Synaptic Pharmaceutical Corporation, priority 1994, dated 2002).

Where two headings read alike, the source gives them in different places.

Test [1] concerns the target T1, α1C Human Adrenergic Receptor (Homo sapiens, UniProt P35348).
T1 construct: expressed in transfected cells; host or cells: LM(tk-) cells
T1 sequence (P35348 1-466): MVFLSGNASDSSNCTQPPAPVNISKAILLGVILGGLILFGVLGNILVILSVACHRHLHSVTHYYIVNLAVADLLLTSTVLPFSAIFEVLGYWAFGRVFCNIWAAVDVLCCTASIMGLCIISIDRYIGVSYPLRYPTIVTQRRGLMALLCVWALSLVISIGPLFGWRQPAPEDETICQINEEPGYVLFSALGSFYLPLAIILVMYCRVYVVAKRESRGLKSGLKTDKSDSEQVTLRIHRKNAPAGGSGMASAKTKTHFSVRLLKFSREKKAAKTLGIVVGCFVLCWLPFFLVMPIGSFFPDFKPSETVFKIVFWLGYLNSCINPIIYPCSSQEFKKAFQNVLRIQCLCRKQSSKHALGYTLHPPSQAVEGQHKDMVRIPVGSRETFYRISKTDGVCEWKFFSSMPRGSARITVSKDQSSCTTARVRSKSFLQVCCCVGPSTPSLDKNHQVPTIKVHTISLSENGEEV
In words: Equilibrium competition binding, [3H] prazosin, membranes of transfected LM(tk-) cells.

The target of test [2] is T2, α1A Human Adrenergic Receptor (Homo sapiens, UniProt P25100).
T2 construct: expressed in transfected cells; host or cells: LM(tk-) cells
T2 sequence (P25100 1-572): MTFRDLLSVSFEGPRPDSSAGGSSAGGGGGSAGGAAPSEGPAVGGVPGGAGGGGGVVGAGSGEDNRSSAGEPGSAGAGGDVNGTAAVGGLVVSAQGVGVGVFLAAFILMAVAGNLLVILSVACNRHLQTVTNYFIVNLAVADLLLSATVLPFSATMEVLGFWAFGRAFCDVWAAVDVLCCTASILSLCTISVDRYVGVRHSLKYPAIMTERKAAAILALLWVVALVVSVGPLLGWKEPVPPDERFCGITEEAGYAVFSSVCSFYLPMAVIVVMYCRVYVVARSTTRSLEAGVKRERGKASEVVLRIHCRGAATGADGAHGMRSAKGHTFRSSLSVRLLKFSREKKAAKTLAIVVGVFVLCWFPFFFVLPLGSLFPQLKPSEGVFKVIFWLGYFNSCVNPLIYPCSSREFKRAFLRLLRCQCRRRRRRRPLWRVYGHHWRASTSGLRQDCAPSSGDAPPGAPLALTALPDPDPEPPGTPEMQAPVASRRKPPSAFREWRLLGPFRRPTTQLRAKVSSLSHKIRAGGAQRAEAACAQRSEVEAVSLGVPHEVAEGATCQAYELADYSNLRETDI
Described as above.

For test [3], the target named is T3, α2B Human Adrenergic Receptor (Homo sapiens, UniProt P18089).
T3 construct: expressed in transfected cells; host or cells: Y-1 cells
T3 sequence (P18089 1-450): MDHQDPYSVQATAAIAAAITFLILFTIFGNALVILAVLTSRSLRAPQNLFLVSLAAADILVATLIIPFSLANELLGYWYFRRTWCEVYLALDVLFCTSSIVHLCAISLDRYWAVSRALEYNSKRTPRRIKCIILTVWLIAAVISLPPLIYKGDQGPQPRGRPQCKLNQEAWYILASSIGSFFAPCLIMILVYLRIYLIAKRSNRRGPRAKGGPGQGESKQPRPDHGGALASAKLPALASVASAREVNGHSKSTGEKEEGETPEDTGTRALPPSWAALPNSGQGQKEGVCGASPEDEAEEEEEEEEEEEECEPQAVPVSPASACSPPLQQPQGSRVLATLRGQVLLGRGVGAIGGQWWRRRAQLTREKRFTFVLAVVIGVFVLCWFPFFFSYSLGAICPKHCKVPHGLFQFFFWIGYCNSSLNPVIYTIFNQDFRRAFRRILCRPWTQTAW
The class given is cell-based.

Where [4] appears, read: cloned human receptor, [3H] prazosin, read-out: pKi Alpha-1 C (converted).
Where [5] appears, read: cloned human receptor, [3H] prazosin, read-out: pKi Alpha-1 A (converted).
Where [6] appears, read: inhibition of forskolin-stimulated cAMP, NA: Not Active, read-out: pEC50 Alpha-2 B (converted).
Setting [7] is: cloned human receptor, [3H] prazosin.

Consider `Brc1c(NC2=NCCN2)ccc2nc(C(c3ccccc3)c3ccccc3)[nH]c12` [Example 48, 2-Diphenylmethyl-4-bromo-5-(2-imidazolin-2-ylamino)Benzimidazole], for which the figures for the Ki in test [1] (setting [4]) and in test [2] (setting [5]) were 120 nM and 1230 nM, respectively. In addition, the “I.A Alpha-2 B” value in test [3] (functional cAMP assay) is 0.80. For the same molecule, the EC50 in test [3] (setting [6]) is 200 nM.

On to `CCc1nc2ccc(NC3=NCCN3)c(Br)c2[nH]1` [Example 43, 2-Ethyl-4-bromo-5-(2-imidazolin-2-ylamino)Benzimidazole], for which the figures for the Ki in test [1] (setting [4]) and in test [2] were 2140 nM and 1740 nM, respectively. The molecule also had an EC50 in test [3] of 162 nM. Besides, the “I.A Alpha-2 B” value in test [3] is given as 0.80.

On to `Clc1c(NC2=NCCN2)ccc2nc[nH]c12` [Example 3, 4-Chloro-5-(2-imidazolin-2-ylamino)Benzimidazole], for which the Ki in test [1] (setting [4]) is 1910 nM; in test [2] it was 537 nM. In test [3] (functional cAMP assay), the “I.A Alpha-2 B” value was 1.00. The EC50 in test [3] (setting [6]) is 12.6 nM.

`CC(C)c1nc2ccc(NC3=NCCN3)c(Br)c2[nH]1` [Example 44, 2-Isopropyl-4-bromo-5-(2-imidazolin-2-ylamino)Benzimidazole]: the Ki in test [1] (setting [4]) is 3090 nM; in test [2], 2040 nM. In addition, the EC50 in test [3] is 91.2 nM. In addition, in test [3], the “I.A Alpha-2 B” value stood at 0.80.

For `c1nc2ccc(NC3=NCCN3)cc2[nH]1` [Example 1, 5-(2-Imidazolin-2-ylamino)Benzimidazole], the Ki was 5250 nM in test [1] (setting [4]) and 6760 nM in test [2]. This molecule also showed an EC50 in test [3] of 44.7 nM. Also, in test [3], the “I.A Alpha-2 B” value turned out to be 1.00.

As to `CCCc1c(NC2=NCCN2)ccc2nc[nH]c12` [Example 7, 4-n-Propyl-5-(2-imidazolin-2-ylamino)Benzimidazole], the Ki in test [1] (setting [4]) is 2000 nM. This molecule also showed a Ki in test [2] of 269 nM. For the same molecule, in test [3], the EC50 is 200 nM and the “I.A Alpha-2 B” value was found to be 1.00.

With `Cc1c(N=C2NCCN2)ccc2[nH]cnc12` [Example 4, 4-Methyl-5-(2-imidazolin-2-ylamino)Benzimidazole], the Ki in test [1] (setting [4]) is 724 nM; in test [2] (setting [5]), 603 nM. Besides, the EC50 in test [3] (setting [6]) is 9.77 nM.

For the molecule `CCCCc1c(NC2=NCCN2)ccc2nc[nH]c12` [Example 8, 4-n-Butyl-5-(2-imidazolin-2-ylamino)Benzimidazole], the Ki is 2000 nM in test [1] (setting [4]) and 676 nM in test [2]. In addition, the “I.A Alpha-2 B” value in test [3] (functional cAMP assay) is 0.80. Also, the EC50 in test [3] (setting [6]) is 234 nM.

Regarding `Cc1nc2ccc(NC3=NCCN3)c(Br)c2[nH]1` [Example 42, 2-Methyl-4-bromo-5-(2-imidazolin-2-ylamino)Benzimidazole], the Ki in test [1] (setting [4]) is 8130 nM. The Ki in test [2] is 1620 nM. Also, in test [3], the EC50 was 97.7 nM and the “I.A Alpha-2 B” value worked out at 0.60.

Take `COc1ccc(Cn2cnc3c(Br)c(NC4=NCCN4)ccc32)cc1` [Example 36, 1-(4-Methoxybenzyl)-4-bromo-5-(2-imidazolin-2-ylamino)Benzimidazole]: the results for the Ki in test [1] and in test [2] were 6460 nM and 813 nM, respectively. In test [3] (functional cAMP assay), the “I.A Alpha-2 B” value worked out at 0.60. In addition, the EC50 in test [3] (setting [6]) is 282 nM.

Regarding `Cn1cnc2cc(NC3=NCCN3)ccc21` [Example 9, 1-Methyl-5-(2-imidazolin-2-ylamino)Benzimidazole], the Ki is 6760 nM in test [1] (setting [4]) and 2750 nM in test [2]. The “I.A Alpha-2 B” value in test [3] (functional cAMP assay) is reported as 1.00. Also, the EC50 in test [3] (setting [6]) is 58.9 nM.

Regarding `Brc1c(NC2=NCCN2)ccc2nc[nH]c12` [Example 2, 4-Bromo-5-(2-imidazolin-2-ylamino)Benzimidazole], the Ki in test [1] was 1700 nM; in test [2], 955 nM. The “I.A Alpha-2 B” value in test [3] (functional cAMP assay) is 1.00. Further, the EC50 in test [3] (setting [6]) is 18.6 nM.

As to `FC(F)(F)c1nc2ccc(NC3=NCCN3)c(Br)c2[nH]1` [Example 46, 2-Trifluoromethyl-4-bromo-5-(2-imidazolin-2-ylamino)Benzimidazole], the Ki in test [1] (setting [4]) was 10700 nM. The Ki in test [2] is 7080 nM. In addition, in test [3], the EC50 was 589 nM and the “I.A Alpha-2 B” value stood at 0.80.

As to `Cn1cnc2c(Br)c(NC3=NCCN3)ccc21` [Example 10, 1-Methyl-4-bromo-5-(2-imidazolin-2-ylamino)Benzimidazole], the Ki in test [1] (setting [4]) is 851 nM. The molecule also gave a Ki in test [2] of 617 nM. In test [3], the EC50 is 102 nM and the “I.A Alpha-2 B” value was found to be 1.00.

`Clc1cc(NC2=NCCN2)cc2[nH]cnc12` [Example 53, 7-Chloro-5-(2-imidazolin-2-ylamino)Benzimidazole]: the Ki in test [1] (setting [4]) is 1000 nM; in test [2] it was 309 nM. This molecule also gave an EC50 in test [3] of 18.2 nM. Besides, the “I.A Alpha-2 B” value in test [3] is 1.00.

For the molecule `Brc1cc2nc[nH]c2c(Br)c1NC1=NCCN1` [Example 50, 4,6-Dibromo-5-(2-imidazolin-2-ylamino)Benzimidazole], the Ki is 776 nM in test [1] (setting [4]) and 35.5 nM in test [2]. In test [3], this molecule had an EC50 of 20.9 nM. Besides, the “I.A Alpha-2 B” value in test [3] is reported as 0.90.

Turning to `Clc1cc(NC2=NCCN2)c(Br)c2[nH]cnc12` [Example 60, 4-Bromo-7-chloro-5-(2-imidazolin-2-ylamino)Benzimidazole], the Ki in test [1] (setting [4]) is 479 nM. In test [2], this molecule gave a Ki of 224 nM. Besides, in test [3], the EC50 is 17.8 nM and the “I.A Alpha-2 B” value amounted to 0.9.

For `Ic1c(NC2=NCCN2)ccc2nc[nH]c12` [Example 5, 4-Iodo-5-(2-imidazolin-2-ylamino)Benzimidazole], in test [1] (setting [4]), the Ki was 2240 nM. Also, in test [2], the Ki was 537 nM. For the same molecule, in test [3], the EC50 is 46.8 nM and the “I.A Alpha-2 B” value amounted to 1.00.

With `CC(C)(C)c1nc2ccc(NC3=NCCN3)c(Br)c2[nH]1` [Example 45, 2-tert-Butyl-4-bromo-5-(2-imidazolin-2-ylamino)Benzimidazole], in test [1] (setting [4]), the Ki was 2190 nM. For the same molecule, in test [2], the Ki is 4570 nM. In test [3], the EC50 was 851 nM and the “I.A Alpha-2 B” value worked out at 0.70.

`CCCCc1cc(NC2=NCCN2)cc2[nH]cnc12` [Example 56, 7-Butyl-5-(2-imidazolin-2-ylamino)Benzimidazole]: the Ki in test [1] (setting [4]) was 589 nM; in test [2] it was 1260 nM. Further, the “I.A Alpha-2 B” value in test [3] (functional cAMP assay) is 0.30. Moreover, the EC50 in test [3] (setting [6]) is 219 nM.

`Cn1cnc2ccc(NC3=NCCN3)c(Br)c21` [Example 12, 3-Methyl-4-bromo-5-(imidazolin-2-ylamino)Benzimidazole]: the “pKi Alpha-1 C” value in test [1] (setting [7]) amounted to 6.46. Also, the “pKi Alpha-1 A” value in test [2] (setting [7]) was found to be 7.02. Further, the “I.A Alpha-2 B” value in test [3] (functional cAMP assay) is 1.00. The “pEC50 Alpha-2 B” value in test [3] (inhibition of forskolin-stimulated cAMP, NA: Not Active) is reported as 7.51.

For the molecule `OCCn1cnc2c(Br)c(NC3=NCCN3)ccc21` [Example 38, 1-(2-Hydroxyethyl)-4-bromo-5-(2-imidazolin-2-ylamino)Benzimidazole], the Ki in test [1] was 6760 nM; in test [2], 7240 nM. Besides, the “I.A Alpha-2 B” value in test [3] (functional cAMP assay) was found to be 0.80. The EC50 in test [3] (setting [6]) was 158 nM.
